Assay results taken from patent publication US9586904B2, “Preparation of (−)-huperzine A” (priority 2013, dated 2017).

Test: Solubility of huperzine A-chiral acid salts and of (±)-huperzine A in solvents
Type: physicochemical
Text: This invention first prepared a series of huperzine A-chiral acid salts.

For (±)-huperzine A, the “solubility in most solvents” value (most solvents) was “rather poorly soluble” and the “solubility in various single solvents” value (various single solvents, during salt formation) was “very poor”.
